Experiments:
Recombinant human BACE1 = molecular target: T1, Recombinant human BACE1 (Homo sapiens, UniProt P56817); test: Assay of BACE1 inhibitory activity: 384-well; type: biochemical; conditions: Assay format 384-well
T1 construct: purchased R&D Systems
Outline: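 Recombinant human BACE1 was incubated 2 h at 25 °C with a biotin/Eu-cryptate-labelled peptide substrate and compound in DMSO. Streptavidin-XL665 in pH 7.0 phosphate buffer containing 0.8 mol/L KF was then added for 30 min at 25 °C for HTRF detection.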

CYP2D6 = molecular target: T2, CYP2D6 (Homo sapiens, UniProt P10635); test: CYP inhibition test (CYP2D6); type: in vitro ADME; conditions: pooled human liver microsomes; dextromethorphan O-demethylation
T2 construct: The commercially available pooled human liver microsomes are used as an enzyme resource; from tissue; host or cells: pooled human liver microsomes
T2 sequence (P10635 whole entry): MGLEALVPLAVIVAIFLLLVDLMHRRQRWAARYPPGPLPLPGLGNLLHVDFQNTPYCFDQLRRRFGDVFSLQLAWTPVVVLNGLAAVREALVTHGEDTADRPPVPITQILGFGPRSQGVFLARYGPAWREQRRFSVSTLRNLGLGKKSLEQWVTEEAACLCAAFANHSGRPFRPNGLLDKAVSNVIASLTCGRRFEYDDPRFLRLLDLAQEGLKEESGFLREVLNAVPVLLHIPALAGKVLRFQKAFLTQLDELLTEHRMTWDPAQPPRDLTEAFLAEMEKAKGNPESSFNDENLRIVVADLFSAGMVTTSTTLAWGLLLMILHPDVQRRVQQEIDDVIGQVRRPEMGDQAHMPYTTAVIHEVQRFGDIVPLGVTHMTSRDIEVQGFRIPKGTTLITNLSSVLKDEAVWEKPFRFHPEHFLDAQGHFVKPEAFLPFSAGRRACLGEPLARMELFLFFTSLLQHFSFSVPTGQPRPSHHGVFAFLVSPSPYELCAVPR
Outline: (§1)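 Pooled human liver microsomes (0.2 mg protein/mL) were incubated at 37 °C with NADPH, compound at 1, 5, 10, 20 μmol/L and marker substrates: tolbutamide 100 μmol/L (2C9), S-mephenytoin 50 μmol/L (2C19), dextromethorphan 5 μmol/L (2D6), terfenadine 1 μmol/L (3A4). Metabolites were measured by LC/MS/MS; IC50 came from logistic fitting against DMSO control.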

[1] = molecular target: T3, P-gp (MDR1 expressing LLC-PK1 cells) (Homo sapiens, UniProt P08183); test: P-gp substrate test; type: in vitro ADME; conditions: net flux = Efflux Ratio in MDR1 expressing cells / Efflux Ratio in parent LLC-PK1 cells
T3 construct: host or cells: LLC-PK1
T3 sequence (P08183 whole entry): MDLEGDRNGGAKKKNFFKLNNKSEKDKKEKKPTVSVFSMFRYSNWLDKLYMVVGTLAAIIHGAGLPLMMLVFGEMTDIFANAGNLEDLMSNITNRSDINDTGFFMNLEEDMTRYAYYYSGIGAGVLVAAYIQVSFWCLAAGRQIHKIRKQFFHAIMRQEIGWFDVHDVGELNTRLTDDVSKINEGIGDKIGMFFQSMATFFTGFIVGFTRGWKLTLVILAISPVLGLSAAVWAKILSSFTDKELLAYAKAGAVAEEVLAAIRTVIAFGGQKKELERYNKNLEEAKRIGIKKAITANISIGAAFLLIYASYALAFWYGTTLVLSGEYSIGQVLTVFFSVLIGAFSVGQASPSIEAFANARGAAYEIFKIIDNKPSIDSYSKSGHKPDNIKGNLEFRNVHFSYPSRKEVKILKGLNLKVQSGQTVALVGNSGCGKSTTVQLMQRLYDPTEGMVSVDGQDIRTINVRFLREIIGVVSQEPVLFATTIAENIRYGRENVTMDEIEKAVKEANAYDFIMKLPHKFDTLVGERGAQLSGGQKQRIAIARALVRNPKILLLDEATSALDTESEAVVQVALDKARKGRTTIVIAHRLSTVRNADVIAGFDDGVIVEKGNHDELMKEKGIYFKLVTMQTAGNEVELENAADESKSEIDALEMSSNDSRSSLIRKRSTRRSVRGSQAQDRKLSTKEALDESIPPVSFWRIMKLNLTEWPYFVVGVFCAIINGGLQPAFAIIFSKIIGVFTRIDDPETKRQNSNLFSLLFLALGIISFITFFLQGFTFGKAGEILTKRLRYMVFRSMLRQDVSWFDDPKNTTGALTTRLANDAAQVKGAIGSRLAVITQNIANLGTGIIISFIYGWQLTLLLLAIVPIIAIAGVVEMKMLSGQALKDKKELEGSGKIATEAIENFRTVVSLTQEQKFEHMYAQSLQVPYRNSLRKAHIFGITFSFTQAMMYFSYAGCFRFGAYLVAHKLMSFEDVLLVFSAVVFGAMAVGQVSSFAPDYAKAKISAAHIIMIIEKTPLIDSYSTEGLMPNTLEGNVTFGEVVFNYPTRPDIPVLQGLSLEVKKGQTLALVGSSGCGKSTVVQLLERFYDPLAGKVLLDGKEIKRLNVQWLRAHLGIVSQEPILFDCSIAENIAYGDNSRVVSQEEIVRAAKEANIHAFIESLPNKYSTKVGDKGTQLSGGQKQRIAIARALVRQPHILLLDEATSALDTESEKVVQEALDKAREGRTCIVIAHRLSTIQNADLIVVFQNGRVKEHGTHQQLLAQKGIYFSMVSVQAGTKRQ
Experimental: • 1. Cell line: • a. MDR/LLC-PK1 (Becton Dickinson) • b. LLC-PK1 (Becton Dickinson) • 2. Reference substrates: • a Digoxin (2 μM)
1. […] After incubation for designed time at 37° C., an aliquot (50 μL) of transport buffer in the donor and receiver side were collected. Assay was performed by duplicate or triplicate. 3. Reference substrate and the present invention in the aliquot was quantified by LC/MS/MS.
Pc(cm/sec)−Permeated amount (pmol)/area of cell membrane (cm2)/initial concentration (nM)/incubation time (sec)
The efflux ratio was calculated using the following equation:
Efflux Ratio=Basolateral-to-Apical Pe/Apical-to-Basolateral Pe
The net flux was calculated using the following equation
Net flux=Efflux Ratio in MDK1 expressing cells/Efflux Ratio in parent cells

CYP2C9 = molecular target: T4, CYP2C9 (Homo sapiens, UniProt P11712); test: CYP inhibition test (CYP2C9); type: in vitro ADME; conditions: pooled human liver microsomes; tolbutamide methyl-hydroxylation
T4 construct: The commercially available pooled human liver microsomes are used as an enzyme resource; from tissue; host or cells: pooled human liver microsomes
T4 sequence (P11712 whole entry): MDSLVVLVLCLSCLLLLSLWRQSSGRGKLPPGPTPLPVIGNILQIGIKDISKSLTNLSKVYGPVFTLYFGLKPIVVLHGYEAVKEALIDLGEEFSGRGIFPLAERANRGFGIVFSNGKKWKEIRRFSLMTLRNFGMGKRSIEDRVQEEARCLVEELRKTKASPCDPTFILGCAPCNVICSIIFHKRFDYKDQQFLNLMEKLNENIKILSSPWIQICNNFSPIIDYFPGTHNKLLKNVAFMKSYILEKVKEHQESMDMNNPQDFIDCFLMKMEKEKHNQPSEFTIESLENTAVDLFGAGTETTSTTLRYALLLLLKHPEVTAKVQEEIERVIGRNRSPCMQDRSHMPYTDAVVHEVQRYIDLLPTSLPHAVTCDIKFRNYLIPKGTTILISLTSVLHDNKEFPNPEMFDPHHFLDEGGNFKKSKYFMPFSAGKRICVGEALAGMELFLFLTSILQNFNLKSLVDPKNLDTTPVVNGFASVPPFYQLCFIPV
Outline: as §1

T1 sequence (P56817 46-501): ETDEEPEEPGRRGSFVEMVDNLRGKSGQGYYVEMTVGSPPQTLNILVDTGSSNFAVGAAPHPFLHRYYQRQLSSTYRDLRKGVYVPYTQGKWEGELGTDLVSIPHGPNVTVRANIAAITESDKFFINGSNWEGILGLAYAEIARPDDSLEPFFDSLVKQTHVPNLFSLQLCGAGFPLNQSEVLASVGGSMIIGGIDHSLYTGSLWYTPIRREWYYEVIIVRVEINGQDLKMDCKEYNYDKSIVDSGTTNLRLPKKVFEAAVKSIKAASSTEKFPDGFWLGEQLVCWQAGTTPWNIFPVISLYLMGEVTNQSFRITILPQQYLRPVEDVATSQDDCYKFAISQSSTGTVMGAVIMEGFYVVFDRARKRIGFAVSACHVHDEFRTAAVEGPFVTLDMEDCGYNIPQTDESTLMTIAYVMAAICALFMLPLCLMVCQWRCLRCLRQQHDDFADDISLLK

Row | IC50 (Recombinant human BACE1) [nM] | IC50 (CYP2D6) [nM] | ER ratio (Cell: MDR1/LLC-PK1) [1] | IC50 (CYP2C9) [nM] | SMILES
1 | 21.1 | ≥ 20000 | 1.1 | ≥ 20000 | CC(F)(F)[C@H]1OC(N)=N[C@](C)(c2cc(NC(=O)c3ccc(C#N)cn3)ccc2F)[C@H]1F [Compound I-40]
2 | 14.6 | – | 1.4 | – | C[C@H]1[C@@H](C(F)(F)F)OC(N)=N[C@]1(C)c1cc(NC(=O)c2cnc(OCF)cn2)ccc1F [Compound I-41]
3 | 14.7 | – | 1.5 | – | COc1cnc(C(=O)Nc2ccc(F)c([C@@]3(C)N=C(N)O[C@H](C(C)(F)F)[C@@H]3F)c2)cn1 [Compound I-42]
4 | 23.6 | ≥ 10000 | 1.5 | – | C[C@H]1SC(N)=N[C@](C)(c2cc(NC(=O)c3cnc(OCC(F)(F)F)cn3)ccc2F)[C@H]1F [Compound I-46]
5 | 4.77 | – | 1.3 | – | C[C@H]1SC(N)=N[C@](C)(c2cc(NC(=O)c3cnc(OC(F)F)cn3)ccc2F)[C@H]1F [Compound I-47]
6 | 7.49 | ≥ 10000 | 1.1 | – | C[C@H]1SC(N)=N[C@](C)(c2cc(NC(=O)c3cnc(OCC(F)F)cn3)ccc2F)[C@H]1F [Compound I-48]
7 | 3.13 | ≥ 20000 | – | ≥ 10000 | C[C@H]1SC(N)=N[C@](C)(c2cc(NC(=O)c3coc(CF)n3)ccc2F)[C@H]1F [Compound I-49]
8 | 7.77 | – | 1.1 | – | COc1ccc(C(=O)Nc2ccc(F)c([C@@]3(C)N=C(N)S[C@H](C)[C@@H]3F)c2)nc1 [Compound I-50]
9 | 17.5 | – | 0.56 | – | C[C@H]1SC(N)=N[C@](C)(c2cc(NC(=O)c3ccc(OCF)cn3)ccc2F)[C@H]1F [Compound I-51]
10 | 7.62 | ≥ 20000 | 2.1 | – | Cc1cc(C#N)cnc1C(=O)Nc1ccc(F)c([C@@]2(C)N=C(N)S[C@H](C)[C@@H]2F)c1 [Compound I-52]
11 | 14.5 | ≥ 20000 | – | – | C[C@H]1SC(N)=N[C@](C)(c2cc(NC(=O)c3ncc(OCC(F)(F)F)cn3)ccc2F)[C@H]1F [Compound I-53]
12 | 19.8 | – | 0.9 | ≥ 20000 | COc1cnc(C(=O)Nc2ccc(F)c([C@@]3(C)N=C(N)SCC34CC(F)(F)C4)c2)cn1 [Compound I-55]
13 | 10.9 | – | 1.2 | ≥ 20000 | C[C@]1(c2cc(NC(=O)c3ccc(C#N)cn3)ccc2F)N=C(N)SCC12CC(F)(F)C2 [Compound I-59]
14 | 7.74 | – | 0.7 | ≥ 10000 | C[C@H]1SC(N)=N[C@](C)(c2cc(NC(=O)c3cnc(OCF)cn3)ccc2F)C12CC(F)(F)C2 [Compound I-62]
15 | 11.9 | – | – | ≥ 10000 | C[C@H]1SC(N)=N[C@](C)(c2cc(NC(=O)c3ccc(F)cn3)ccc2F)C12CC(F)(F)C2 [Compound I-63]
16 | 7.06 | ≥ 20000 | 3.2 | – | C[C@H]1SC(N)=N[C@](C)(c2cc(NC(=O)c3ncc(C#N)cc3Cl)ccc2F)[C@H]1F [Compound I-64]
17 | 21.9 | – | 1.1 | – | C[C@H]1SC(N)=N[C@](C)(c2cc(NC(=O)c3cnc(C(F)F)cn3)ccc2F)[C@H]1F [Compound I-65]
18 | 5.62 | – | 0.6 | – | CC[C@H]1SC(N)=N[C@](C)(c2cc(NC(=O)c3cnc(OCF)cn3)ccc2F)[C@H]1F [Compound I-66]
19 | 5.47 | – | 0.9 | – | CC[C@H]1SC(N)=N[C@](C)(c2cc(NC(=O)c3ccc(OCF)cn3)ccc2F)[C@H]1F [Compound I-67]
20 | 10.6 | ≥ 10000 | – | – | CC[C@H]1SC(N)=N[C@](C)(c2cc(NC(=O)c3ccc(F)cn3)ccc2F)[C@H]1F [Compound I-70]
21 | 12 | – | 0.92 | ≥ 20000 | COc1cnc(C(=O)Nc2ccc(F)c([C@@]3(C)N=C(N)O[C@H]([C@@H](C)F)[C@@H]3F)c2)cn1 [Compound I-71]
22 | 15.6 | – | 0.8 | ≥ 10000 | CC(F)(F)[C@H]1OC(N)=N[C@](C)(c2cc(NC(=O)c3cnc(OCC(F)(F)F)cn3)ccc2F)[C@H]1F [Compound I-75]

Row | IC50 (Recombinant human BACE1) [nM] | IC50 (CYP2D6) [nM] | ER ratio (Cell: MDR1/LLC-PK1) [1] | IC50 (CYP2C9) [nM] | SMILES
23 | 3.77 | – | 1 | – | CC#CCOc1cnc(C(=O)Nc2ccc(F)c([C@@]3(C)N=C(N)O[C@H](C(C)(F)F)[C@@H]3F)c2)cn1 [Compound I-76]
24 | 45.8 | – | 1.2 | ≥ 10000 | CC(F)(F)[C@H]1OC(N)=N[C@](C)(c2cc(NC(=O)c3cnc(OCC(F)F)cn3)ccc2F)[C@H]1F [Compound I-77]
25 | 13.2 | – | 1.7 | ≥ 10000 | COCC(F)(F)[C@H]1OC(N)=N[C@](C)(c2cc(NC(=O)c3cnc(OCF)cn3)ccc2F)[C@H]1F [Compound I-79]
26 | 16.9 | – | – | ≥ 10000 | C[C@]1(c2cc(NC(=O)c3ccc(C#N)cn3)ccc2F)N=C(N)O[C@H](C(F)(F)C2CC2)[C@@H]1F [Compound I-81]
27 | 25.1 | – | 0.96 | – | C[C@]1(c2cc(NC(=O)c3cnc(OCF)cn3)ccc2F)N=C(N)O[C@H](C(F)(F)C2CC2)[C@@H]1F [Compound I-82]
28 | 30.3 | – | – | – | COc1cnc(C(=O)Nc2ccc(F)c([C@@]3(C)N=C(N)O[C@H](C(F)(F)C4CC4)[C@@H]3F)c2)cn1 [Compound I-83]
29 | 15.4 | ≥ 20000 | – | – | C[C@H]1SC(N)=N[C@](C)(c2cc(NC(=O)c3cnc(OCC4CC4)cn3)ccc2F)[C@H]1F [Compound I-85]
30 | 101 | – | 1.5 | ≥ 20000 | COc1cnc(C(=O)Nc2ccc(F)c([C@@]3(C)N=C(N)O[C@H](C(F)F)[C@@H]3C)c2)cn1 [Compound I-86]
31 | 21.4 | ≥ 20000 | 3.4 | ≥ 20000 | CO[C@H]1[C@@H](C)SC(N)=N[C@]1(C)c1cc(NC(=O)c2cnc(OCF)cn2)ccc1F [Compound I-87]
32 | 14.4 | ≥ 20000 | – | ≥ 20000 | CO[C@H]1[C@@H](C)SC(N)=N[C@]1(C)c1cc(NC(=O)c2ccc(C#N)cn2)ccc1F [Compound I-88]
33 | 15.1 | ≥ 20000 | – | ≥ 20000 | CO[C@H]1[C@@H](C)SC(N)=N[C@]1(C)c1cc(NC(=O)c2ccc(F)cn2)ccc1F [Compound I-89]
34 | 15.3 | ≥ 20000 | 3.1 | ≥ 20000 | COc1cnc(C(=O)Nc2ccc(F)c([C@@]3(C)N=C(N)S[C@H](C)[C@@H]3OC)c2)cn1 [Compound I-90]
35 | 6.37 | – | 1.5 | – | COC[C@H]1SC(N)=N[C@](C)(c2cc(NC(=O)c3cnc(OCF)cn3)ccc2F)[C@H]1F [Compound I-91]
36 | 21.2 | ≥ 20000 | 2.0 | ≥ 10000 | C[C@]1(c2cc(NC(=O)c3ccc(C#N)cn3)ccc2F)N=C(N)O[C@H](C2(F)CC2)[C@@H]1F [Compound I-96]
37 | 25.3 | – | 1.1 | – | C[C@]1(c2cc(NC(=O)c3ccc(OCF)cn3)ccc2F)N=C(N)O[C@H](C2(F)CC2)[C@@H]1F [Compound I-101]
38 | 17.3 | ≥ 20000 | 1.4 | ≥ 10000 | COc1cnc(C(=O)Nc2cccc([C@@]3(C)N=C(N)S[C@H](C)[C@@H]3F)c2)cn1 [Compound I-103]
39 | 10.8 | ≥ 20000 | 1.4 | ≥ 10000 | C[C@H]1SC(N)=N[C@](C)(c2cccc(NC(=O)c3cnc(OCF)cn3)c2)[C@H]1F [Compound I-104]
40 | 19.4 | ≥ 20000 | 1.9 | ≥ 20000 | C[C@H]1SC(N)=N[C@](C)(c2cccc(NC(=O)c3cnc(C(F)F)cn3)c2)[C@H]1F [Compound I-106]
41 | 136 | ≥ 10000 | 1.4 | – | COc1ccc(C(=O)Nc2ccc(F)c([C@@]3(C)N=C(N)S[C@H](C)[C@@H]3F)c2)nn1 [Compound I-108]
42 | 10.8 | – | 8.5 | – | C[C@]1(c2cc(NC(=O)c3cnc(OCF)cn3)ccc2F)N=C(N)S[C@H](CO)[C@@H]1F [Compound I-109]
43 | 7.84 | ≥ 20000 | 1.1 | – | C[C@H]1SC(N)=N[C@](C)(c2cc(NC(=O)c3ccc(F)cn3)ccc2F)[C@H]1F [Compound I-116]

— US20170073337A1, “DIHYDROTHIAZINE AND DIHYDROOXAZINE DERIVATIVES HAVING BACE1 INHIBITORY ACTIVITY” (Shionogi & Co., Ltd., priority 2014, published 2017)
